Results published in ChEMBL document CHEMBL3758169, “4-Aminoindazolyl-dihydrofuro[3,4-d]pyrimidines as non-covalent inhibitors of mutant epidermal growth factor receptor tyrosine kinase” (Bioorg Med Chem Lett, 2016).

Columns and labels:
[1] = test system: Fibroblast growth factor receptor 3 (Homo sapiens), P22607 [K650E]; test: Inhibition of FGFR3 K650E mutant (unknown origin) at 100 nM
[2] = target: Ephrin type-A receptor 1 (Homo sapiens) (UniProt P21709); test: Inhibition of EPHA1 (unknown origin) at 100 nM
[3] = target: Misshapen-like kinase 1 (Homo sapiens) (UniProt Q8N4C8); test: Inhibition of MINK1 (unknown origin) at 100 nM
[4] = target: Ribosomal protein S6 kinase alpha-3 (Homo sapiens) (UniProt P51812); test: Inhibition of RSK2 (unknown origin) at 100 nM
[5] = target: Muscle, skeletal receptor tyrosine-protein kinase (Homo sapiens) (UniProt O15146); test: Inhibition of MUSK (unknown origin) at 100 nM
[6] = target: Phosphatidylinositol 4,5-bisphosphate 3-kinase catalytic subunit gamma isoform (Homo sapiens) (UniProt P48736); test: Inhibition of PI3KG (unknown origin) at 100 nM
[7] = target: Tyrosine-protein kinase Fes/Fps (Homo sapiens) (UniProt P07332); test: Inhibition of FES (unknown origin) at 100 nM
[8] = target: Cyclin-dependent kinase 1/cyclin B1 (Homo sapiens) (UniProt P06493+P14635); test: Inhibition of CDK1/cyclinB (unknown origin) at 100 nM; format: protein-complex assay
[9] = target: NT-3 growth factor receptor (Homo sapiens) (UniProt Q16288); test: Inhibition of TRKC (unknown origin) at 100 nM
[10] = target: RAC-gamma serine/threonine-protein kinase (Homo sapiens) (UniProt Q9Y243); test: Inhibition of AKT3 (unknown origin) at 100 nM
[11] = target: 5'-AMP-activated protein kinase catalytic subunit alpha-2 (Homo sapiens) (UniProt P54646); test: Inhibition of PRKAA2 (unknown origin) at 100 nM
[12] = target: Cyclin-dependent kinase 7/ cyclin H (Homo sapiens) (UniProt P51946+P50613); test: Inhibition of CDK7/cyclinH (unknown origin) at 100 nM; format: protein-complex assay
[13] = target: Serine/threonine-protein kinase Nek6 (Homo sapiens) (UniProt Q9HC98); test: Inhibition of NEK6 (unknown origin) at 100 nM
[14] = target: Serine/threonine-protein kinase TAO1 (Homo sapiens) (UniProt Q7L7X3); test: Inhibition of TAO1 (unknown origin) at 100 nM
[15] = target: Ribosomal protein S6 kinase alpha-5 (Homo sapiens) (UniProt O75582); test: Inhibition of MSK1 (unknown origin) at 100 nM
Ribosomal protein S6 kinase alpha-5 (Homo sapiens), sequence (O75582 whole entry, looked up): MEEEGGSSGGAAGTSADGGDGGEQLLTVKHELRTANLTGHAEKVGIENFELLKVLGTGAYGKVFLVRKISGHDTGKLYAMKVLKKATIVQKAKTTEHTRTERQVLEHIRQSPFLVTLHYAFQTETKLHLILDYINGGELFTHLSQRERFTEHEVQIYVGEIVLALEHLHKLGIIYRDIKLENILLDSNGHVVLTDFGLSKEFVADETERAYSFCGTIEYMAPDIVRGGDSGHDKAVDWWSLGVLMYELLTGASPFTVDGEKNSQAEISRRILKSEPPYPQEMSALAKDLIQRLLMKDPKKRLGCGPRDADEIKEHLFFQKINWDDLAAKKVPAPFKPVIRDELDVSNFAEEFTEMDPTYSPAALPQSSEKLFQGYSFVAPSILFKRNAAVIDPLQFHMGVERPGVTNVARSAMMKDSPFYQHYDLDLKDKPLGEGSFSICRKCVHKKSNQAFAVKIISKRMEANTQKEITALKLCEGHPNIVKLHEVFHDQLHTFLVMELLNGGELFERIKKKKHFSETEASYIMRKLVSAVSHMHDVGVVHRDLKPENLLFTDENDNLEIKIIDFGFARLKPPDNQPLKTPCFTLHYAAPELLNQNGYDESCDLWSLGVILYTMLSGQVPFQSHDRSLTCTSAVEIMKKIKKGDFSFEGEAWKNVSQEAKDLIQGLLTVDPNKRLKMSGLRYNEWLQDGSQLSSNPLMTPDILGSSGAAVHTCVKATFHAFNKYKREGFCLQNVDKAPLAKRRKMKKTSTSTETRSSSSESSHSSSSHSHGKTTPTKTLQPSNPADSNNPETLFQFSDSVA

Serine/threonine-protein kinase TAO1 (Homo sapiens), sequence (Q7L7X3 whole entry): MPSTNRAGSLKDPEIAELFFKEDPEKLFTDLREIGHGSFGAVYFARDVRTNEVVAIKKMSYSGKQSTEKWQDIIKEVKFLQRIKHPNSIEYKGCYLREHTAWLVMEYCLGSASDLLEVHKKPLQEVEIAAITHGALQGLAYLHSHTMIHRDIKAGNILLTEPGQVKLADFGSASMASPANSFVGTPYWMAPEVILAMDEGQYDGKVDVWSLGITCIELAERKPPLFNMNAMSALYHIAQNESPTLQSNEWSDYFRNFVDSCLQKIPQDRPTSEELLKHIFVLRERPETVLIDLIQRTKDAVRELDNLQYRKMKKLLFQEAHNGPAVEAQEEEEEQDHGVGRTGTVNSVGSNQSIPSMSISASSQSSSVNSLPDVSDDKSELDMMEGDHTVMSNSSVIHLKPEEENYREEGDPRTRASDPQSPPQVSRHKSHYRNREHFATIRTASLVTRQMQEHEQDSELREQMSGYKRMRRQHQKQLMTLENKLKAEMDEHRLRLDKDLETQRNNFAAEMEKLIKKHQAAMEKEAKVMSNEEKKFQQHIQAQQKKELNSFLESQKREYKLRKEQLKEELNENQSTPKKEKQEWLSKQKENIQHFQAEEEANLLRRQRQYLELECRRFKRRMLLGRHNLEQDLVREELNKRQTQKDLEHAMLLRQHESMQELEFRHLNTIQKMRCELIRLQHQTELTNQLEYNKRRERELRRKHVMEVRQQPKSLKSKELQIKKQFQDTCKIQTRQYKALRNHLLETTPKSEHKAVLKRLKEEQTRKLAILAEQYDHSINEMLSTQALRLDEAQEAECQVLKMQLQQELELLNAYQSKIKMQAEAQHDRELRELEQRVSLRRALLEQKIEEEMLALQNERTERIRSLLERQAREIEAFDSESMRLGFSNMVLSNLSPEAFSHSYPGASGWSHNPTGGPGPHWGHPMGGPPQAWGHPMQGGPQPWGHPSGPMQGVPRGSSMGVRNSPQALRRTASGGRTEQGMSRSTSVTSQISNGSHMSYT
Ribosomal protein S6 kinase alpha-3 (Homo sapiens), sequence (P51812 whole entry): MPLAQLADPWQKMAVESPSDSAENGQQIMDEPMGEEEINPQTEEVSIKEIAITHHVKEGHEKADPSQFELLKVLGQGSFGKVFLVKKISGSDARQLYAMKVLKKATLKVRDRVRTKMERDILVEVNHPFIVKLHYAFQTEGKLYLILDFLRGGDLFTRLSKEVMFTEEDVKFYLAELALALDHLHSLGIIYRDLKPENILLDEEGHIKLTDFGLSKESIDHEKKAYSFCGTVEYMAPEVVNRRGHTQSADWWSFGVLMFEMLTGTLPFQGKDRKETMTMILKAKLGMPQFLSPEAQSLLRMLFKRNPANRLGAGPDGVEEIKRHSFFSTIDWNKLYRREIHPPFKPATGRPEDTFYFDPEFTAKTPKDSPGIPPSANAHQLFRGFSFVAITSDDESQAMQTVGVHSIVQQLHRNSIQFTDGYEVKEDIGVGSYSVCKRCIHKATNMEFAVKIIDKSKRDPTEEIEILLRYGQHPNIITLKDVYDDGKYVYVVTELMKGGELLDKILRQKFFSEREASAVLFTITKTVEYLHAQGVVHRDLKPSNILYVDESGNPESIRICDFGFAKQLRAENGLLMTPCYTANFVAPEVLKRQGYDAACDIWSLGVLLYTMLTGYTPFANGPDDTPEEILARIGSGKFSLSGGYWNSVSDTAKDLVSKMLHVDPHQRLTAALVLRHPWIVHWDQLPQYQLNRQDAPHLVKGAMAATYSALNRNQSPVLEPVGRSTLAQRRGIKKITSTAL
Serine/threonine-protein kinase Nek6 (Homo sapiens), sequence (Q9HC98 whole entry): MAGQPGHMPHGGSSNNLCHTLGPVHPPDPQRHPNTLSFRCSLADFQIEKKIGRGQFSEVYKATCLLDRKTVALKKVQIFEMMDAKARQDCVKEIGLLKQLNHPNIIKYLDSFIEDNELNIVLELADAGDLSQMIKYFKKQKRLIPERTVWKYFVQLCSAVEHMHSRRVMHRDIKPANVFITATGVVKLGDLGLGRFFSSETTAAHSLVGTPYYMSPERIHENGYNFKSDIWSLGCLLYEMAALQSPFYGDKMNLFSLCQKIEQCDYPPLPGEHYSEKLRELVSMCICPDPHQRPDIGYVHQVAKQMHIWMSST
Fibroblast growth factor receptor 3 (Homo sapiens), P22607 [K650E], sequence (P22607 whole entry K650E): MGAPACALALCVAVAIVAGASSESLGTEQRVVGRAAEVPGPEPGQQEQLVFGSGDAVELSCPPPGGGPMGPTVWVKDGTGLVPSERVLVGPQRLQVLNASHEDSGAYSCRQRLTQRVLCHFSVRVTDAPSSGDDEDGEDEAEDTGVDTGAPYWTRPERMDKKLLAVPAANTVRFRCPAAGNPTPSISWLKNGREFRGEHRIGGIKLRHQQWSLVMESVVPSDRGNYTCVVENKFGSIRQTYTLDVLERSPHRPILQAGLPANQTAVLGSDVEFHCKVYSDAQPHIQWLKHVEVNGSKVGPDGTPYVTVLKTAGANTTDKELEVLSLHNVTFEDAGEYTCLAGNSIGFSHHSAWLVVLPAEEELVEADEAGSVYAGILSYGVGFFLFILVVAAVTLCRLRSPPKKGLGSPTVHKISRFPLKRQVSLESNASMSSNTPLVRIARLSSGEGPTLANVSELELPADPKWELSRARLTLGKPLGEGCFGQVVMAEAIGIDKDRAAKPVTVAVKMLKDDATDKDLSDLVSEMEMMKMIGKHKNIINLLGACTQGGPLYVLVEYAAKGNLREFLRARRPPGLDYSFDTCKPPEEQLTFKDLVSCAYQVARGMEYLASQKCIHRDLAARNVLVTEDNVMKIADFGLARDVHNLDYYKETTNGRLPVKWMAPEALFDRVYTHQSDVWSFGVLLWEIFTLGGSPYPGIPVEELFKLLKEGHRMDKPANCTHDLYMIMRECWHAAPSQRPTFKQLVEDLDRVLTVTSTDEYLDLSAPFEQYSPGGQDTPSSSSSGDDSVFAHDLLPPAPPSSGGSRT
Phosphatidylinositol 4,5-bisphosphate 3-kinase catalytic subunit gamma isoform (Homo sapiens), sequence (P48736 whole entry, looked up, canonical isoform): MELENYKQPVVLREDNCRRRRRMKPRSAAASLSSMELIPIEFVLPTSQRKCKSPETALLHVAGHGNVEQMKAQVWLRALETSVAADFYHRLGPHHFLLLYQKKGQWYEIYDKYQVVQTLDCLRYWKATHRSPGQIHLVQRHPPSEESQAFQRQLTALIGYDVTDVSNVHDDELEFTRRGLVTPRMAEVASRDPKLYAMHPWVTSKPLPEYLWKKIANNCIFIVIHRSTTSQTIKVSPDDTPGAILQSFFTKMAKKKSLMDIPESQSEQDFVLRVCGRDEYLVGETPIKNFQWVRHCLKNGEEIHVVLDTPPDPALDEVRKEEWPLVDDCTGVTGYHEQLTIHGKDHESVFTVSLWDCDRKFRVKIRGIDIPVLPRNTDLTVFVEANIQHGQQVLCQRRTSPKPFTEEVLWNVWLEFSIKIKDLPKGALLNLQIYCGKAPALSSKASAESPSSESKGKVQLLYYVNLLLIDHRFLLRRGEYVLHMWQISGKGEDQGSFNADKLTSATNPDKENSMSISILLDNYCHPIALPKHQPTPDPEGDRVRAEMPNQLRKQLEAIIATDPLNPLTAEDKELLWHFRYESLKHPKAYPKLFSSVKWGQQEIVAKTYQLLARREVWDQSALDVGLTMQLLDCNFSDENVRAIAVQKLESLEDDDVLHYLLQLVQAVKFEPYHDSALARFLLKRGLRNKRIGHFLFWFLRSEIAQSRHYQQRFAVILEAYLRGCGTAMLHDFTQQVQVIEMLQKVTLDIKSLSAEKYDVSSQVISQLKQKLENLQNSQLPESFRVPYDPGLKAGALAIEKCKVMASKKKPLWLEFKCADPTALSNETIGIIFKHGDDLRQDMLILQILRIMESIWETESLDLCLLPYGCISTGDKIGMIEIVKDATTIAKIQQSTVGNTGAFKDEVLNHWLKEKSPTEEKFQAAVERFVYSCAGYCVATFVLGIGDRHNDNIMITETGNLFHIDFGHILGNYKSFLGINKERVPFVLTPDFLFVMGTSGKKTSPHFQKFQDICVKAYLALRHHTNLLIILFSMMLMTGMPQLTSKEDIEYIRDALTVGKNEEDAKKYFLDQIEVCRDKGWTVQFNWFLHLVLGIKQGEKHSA

inhibition [1]: 38.8%
inhibition [2]: 16.1%
inhibition [3]: 12.9%
inhibition [4]: -5.9%
inhibition [5]: 3.5%
inhibition [6]: 15.1%
inhibition [7]: 6%
inhibition [8]: -3.1%
inhibition [9]: 14.5%
inhibition [10]: 10.4%
inhibition [11]: 10.9%
inhibition [12]: 14.3%
inhibition [13]: 9.9%
inhibition [14]: 0.7%
inhibition [15]: 11.5%
Compound: CC1(C)OCc2c(Nc3n[nH]c4ccccc34)nc(-c3cn[nH]c3)nc21
